Results taken from PubChem BioAssay AID179 (DTP/NCI, 2004).
Active and inactive are the calls of the source.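 Rule for the calls: active = compounds giving half or more protection of infected cells from virus-caused growth loss, again on retest; inactive = the rest.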

Test system: CEM cells HIV-1 protection, formazan growth assay
Assay: NCI AIDS Antiviral Assay
Settings: for IC50: measured here: growth of uninfected CEM cells
In short: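 Category rules: moderately active means at least 50% protection on retest, and confirmed active means 100% protection reproducibly. The underlying data came from a formazan growth assay in HIV-1-infected CEM cells.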

SMILES | EC50 | IC50 | outcome
COc1ccc(CCN(C)CCC[C@](C#N)(c2ccc(OC)c(OC)c2)C(C)C)cc1OC | > 200 µM | 38.9 µM | 
CN1c2ccccc2N(C)C23N(C)c4ccccc4N(C)C12N(C)c1ccccc1N3C (stereo not drawn) | > 43.7 µM | > 43.7 µM | 
COC(=O)C(=C\Sc1ccccc1)/C=C/C(=O)OC(C)(C)C |  |  | inactive
Cc1cc2c3c(nc2c2cc[nH]c(C)c12)CCCC3 | > 200 µM | 3.63 µM | 
CC1(C)OC2C=C(COCc3ccccc3)C[C@H]3[C@@H]2C(O1)[C@@H]1OC[C@H]3O1 (stereo partly drawn) |  |  | inactive
Clc1c(C(Cl)(Cl)Cl)nsc1N1CCCCC1 | > 200 µM | 72.4 µM | 
CN(C)C=Nc1c(Br)cc(Br)c2nonc12 | > 200 µM | > 200 µM | 
Cc1ccc(NC(=O)SCCC(=O)O)cc1 |  |  | inactive
CCC(C)[C@H]1C(=O)N=C(N)N1C(=O)OCc1ccccc1 (stereo partly drawn) | 195 µM | > 200 µM | 
Cc1nc2ccc(Br)cc2c(=O)n1-c1nnc(C(C)(C)C)s1 | > 200 µM | > 200 µM | 
[N-]=[N+]=NCN1C(=O)C2C3C=CC(C2C1=O)C1C2C(=O)N(CN=[N+]=[N-])C(=O)C2C31 (stereo not drawn) |  |  | inactive
COC(=O)C1CCC(=O)N1CN(C(C)=O)c1ccccc1Cl (stereo not drawn) | > 200 µM | > 200 µM | 
Nn1c(SCC(=O)NCc2ccccc2)nc2ccccc2c1=O | 12.6 µM | 95.5 µM | 
CC/C(C)=C1/CC(C)(C)N=C1C | > 200 µM | 89.1 µM | 
N#CCC(=O)NN=C1CCCCC1 | > 200 µM | > 200 µM | 
CC1(C)C2CC[C@]3(C)C(C(=O)C=C4[C@@H]5C[C@@](C)(C(=O)O)CC[C@]5(C)CCC43C)[C@@]2(C)CC[C@@H]1OC1OC(C(=O)O)C(O)C(O)C1OC1OC(C(=O)O)C(O)C(O)C1O (stereo partly drawn) (tested in a mixture with another compound) |  |  | inactive
COc1ccc2c(c1OC)C(=O)N1C2=Cc2c(cc3c(c2OC)OCO3)CC1N(C)C (stereo not drawn) | > 200 µM | 26.9 µM | 
COC(=O)NN(C(=O)OC)c1c(-c2ccccc2)nc(SC)n1N | > 200 µM | > 200 µM | 

SMILES | EC50 | IC50 | outcome
COC1=CC(=O)C2C(C1=O)[C@@H]1c3ccccc3OC(C)(C)[C@H]21 (stereo partly drawn) | > 166 µM | 16.2 µM | 
Cc1ccc(S(=O)(=O)OC2C(O)C(CO)OC2n2c(Br)c(C(N)=O)c3c(N)ncnc32)cc1 (stereo not drawn) | > 200 µM | > 200 µM | 
[N-]=[N+]=NC1CC(n2cc(CO)c(=O)[nH]c2=O)OC1CO (stereo not drawn) | > 437 µM | 240 µM | 
c1ccc(N=C(Nc2ccccc2)N2CCCC2)cc1 | > 200 µM | 174 µM | 
Nc1nsc2nc3ccccc3cc12 |  |  | inactive
NCCSSc1ccc([N+](=O)[O-])cc1 |  |  | inactive
Cc1ccc([N+](=O)[O-])c2c(NCC(O)CO)ccnc12 (stereo not drawn) | > 33.9 µM | 26.3 µM | 
CCN(CC)CCSSCCN(CC)CC | > 200 µM | 38.9 µM | 
CC(C)(CN1CCCCC1)C(=O)/C=C/c1ccc(Br)cc1 | > 129 µM | 1.7 µM | 
CC1=C(C(=O)CC(=O)C(=O)Nc2ccccc2)Sc2ccccc2N1 | > 178 µM | > 178 µM | 
NC(N)=NS(=O)(=O)c1ccc(Nc2c3ccccc3nc3c(C(=O)NC(CO)(CO)CO)cccc23)cc1 | > 200 µM | 3.31 µM | 
NC(N)=NCCC(O)(P(=O)(O)O)P(=O)(O)O | > 200 µM | > 200 µM | 
CCOc1c(OC)cc(-c2nc3n(n2)C(=O)C(CC)S3)cc1OC (stereo not drawn) | > 200 µM | > 200 µM | 
O=C(O)CNC(=O)OCCCCOC(=O)NCC(=O)O | > 851 µM | > 851 µM | 
Nc1ccccc1C(=O)CCc1ccccc1C(=O)O |  |  | inactive
CCOP(=O)(OCC)C(Nc1ccc(Cl)cc1)c1ccc(F)cc1 (stereo not drawn) |  |  | inactive
CC(C)(C)C(=O)O[C@H]1C=C[C@@H](O)[C@@H]2[C@H]1[C@@H]1C=C[C@H]2C1 | > 200 µM | 22.9 µM | 
C[CH2][Sn]([CH2]C)([O]C(=O)c1ccccc1F)[O][Sn]([CH2]C)([CH2]C)[O]C(=O)c1ccccc1F | > 39.8 µM | 25.1 µM | 
